Data as given in PubChem BioAssay AID1159562 (GlaxoSmithKline (GSK), 2015).
The source made the active and inactive calls. How the calls were made is not given here.

The compounds below were run on Trypanosoma brucei growth inhibition, luminescence (assay: Trypanosoma brucei growth inhibition, luminescence (AID 1159562);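 further: parasites grew with compound for 24 h before the luminescence read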).

| Compound | IC50 |
| --- | --- |
| Cn1nc(C(=O)N2CCc3ccccc32)c2c1CCS(=O)(=O)C2 | 6300 nM |
| CN(Cc1ccccc1)Cc1nnnn1C1CCN(Cc2ccc(-n3ccnc3)cc2)CC1 | > 40000 nM (inactive) |
| Nc1nc(-c2ccccc2)cc(-c2nc3ncccc3[nH]2)n1 | 16000 nM |
| Cc1c(C#N)c([N+](=O)[O-])nn1Cc1cccc(Cl)c1Cl | 25000 nM |
| O=C(CSc1ccc(-c2ccccn2)nn1)Nc1ccc(Cl)cc1 | > 40000 nM (inactive) |
| O=C(Nc1cccc(Cl)c1)Nc1ccc([N+](=O)[O-])cc1Cl | 3200 nM |
| Oc1cccnc1-c1n[nH]c(Cc2ccccc2)n1 | 10000 nM |
| COc1ccc(OC)c2c(=O)c(Cc3ccccc3)c(C)[nH]c12 | > 40000 nM (inactive) |
| CC(c1ccccn1)N(C)Cc1nc2ccccc2n1C(C)C (stereo not drawn) | 10000 nM |
| Cc1c(C(C)NC(=O)Nc2cccc(Cl)c2)sc2ncnn12 (stereo not drawn) | > 40000 nM (inactive) |
| CN(Cc1nnnn1C1CCN(Cc2ccc(-n3ccnc3)cc2)CC1)c1ccc(F)cc1F | > 40000 nM (inactive) |
| O=C(CSc1ccc(F)cc1)N[C@@H](Cc1cnc[nH]1)C(=O)NCCc1ccccc1 | > 40000 nM (inactive) |
| O=C(NC(c1ccc(Cl)cc1)c1cnccn1)C1CCN(C(=O)Nc2cccc(C(F)(F)F)c2)CC1 (stereo not drawn) | 6300 nM |
| COc1ccc(Nc2nccc(N(C)c3n[nH]c4c(F)cccc34)n2)cc1S(C)(=O)=O | 10000 nM |
| O=C(COc1ncnc2cc([N+](=O)[O-])ccc12)NC(=O)NC1CCCCC1 | > 40000 nM (inactive) |
| COc1ccc(Nc2nc(-c3ccccn3)cs2)c(OC)c1 | 25000 nM |
| COc1ccc(C(=O)[C@H]2C[C@@H]2CN(Cc2ccccn2)Cc2ccccn2)cc1 | 16000 nM |
| CCNc1cc(-c2ccccn2)nc(Nc2ccccc2)n1 | 13000 nM |
| CCCN1CCN(Cc2ccc(S(=O)(=O)Nc3cccc(C)c3)cc2)CC1 | > 40000 nM (inactive) |
| O=C(NCCc1ccccc1Cl)c1cccn1-c1cccnc1 | > 40000 nM (inactive) |
| CC(C)c1nn(-c2nc(N)nc(-c3ccccn3)n2)c(N)c1C1CCCCC1 | 7900 nM |
| CNc1cncc(C2CCCN2C(=O)Cc2coc3cc(C)ccc23)n1 (stereo not drawn) | > 40000 nM (inactive) |
| Cc1cc(Br)cc(C(=O)c2c(C(C)C)c(=O)[nH]c(=O)n2Cc2ccnc(N)c2)c1 | 25000 nM |
| NC(=O)c1ccccc1Nc1nc(NC2CCCCC2)nc2[nH]ccc12 | 10000 nM |
| c1ccc2c(CCOc3nccnc3-c3ccncc3)c[nH]c2c1 | 40000 nM |
| N#Cc1cc(N2CCCC2=O)ccc1Sc1ccccc1CO | 32000 nM |

Now from value to compound:

| IC50 | Compound |
| --- | --- |
| 630 nM | CS(=O)(=O)c1ccccc1C(=O)N(Cc1ccccc1)c1ccccc1 |
| 1600 nM | NC(=O)c1ccsc1NC(=O)c1ccc([N+](=O)[O-])s1 |
| 630 nM | Cc1c(Nc2cc(C3CC3)[nH]n2)ccc(C#N)c1Cl |
| 2500 nM | COc1ccc2ncc(=O)n(CCN3CCOC(CNCc4ccc(C(F)(F)F)cc4F)C3)c2n1 (stereo not drawn) |
| 790 nM | NCc1csc(Nc2cc(Oc3ccccc3)ncn2)n1 |
| 500 nM | CCc1ccccc1[C@@H](C)NC(=O)c1cnc2c(cnn2CC)c1NC1CCN(C(N)=O)CC1 |
| 320 nM | CCN(CC)S(=O)(=O)c1ccc(C(=O)Nc2cc(C)nn2-c2nc(C)c(C)c(=O)[nH]2)cc1 |
| 63 nM | Cc1ccc(NC(=O)c2ccnc(N3CCCC3)c2)cc1-c1ccsc1C(N)=O |
| 630 nM | CN(C)S(=O)(=O)c1cccc(C(=O)Nc2nc(-c3ccccn3)cs2)c1 |
| 100 nM | NC(N)=Nc1nc(-c2ccc(NC(N)=NCCN3CCCC3)cc2)cs1 |
| 320 nM | O=C(NCCc1ccn(-c2ccccc2)n1)C1CCCCC1 |
| 200 nM | CCc1c(C)nc(-n2nc(C)cc2NC(=O)COc2ccccc2F)[nH]c1=O |
| 630 nM | OC[C@@H](Nc1nccc(-c2c(-c3ccc(F)cc3)ncn2C2CCNCC2)n1)c1ccccc1 |
| 1600 nM | COc1ccc2ncc(F)c(NC(=O)C3(O)CCC(NCc4ccc5c(c4)OCCO5)CC3)c2n1 (stereo not drawn) |
| 2000 nM | O=c1ccc2ccc(F)c3c2n1C[C@H]3CN1CCC(NCc2cc3ccccc3o2)CC1 |
| 2500 nM | Cc1nc2c(-c3n[nH]c(-c4ccccc4N)n3)cccn2c1C |
| 160 nM | CC(=O)Nc1ccc(-c2csc(NC(=O)c3ccc([N+](=O)[O-])s3)n2)cc1 |
| 320 nM | Cc1ccccc1NS(=O)(=O)c1ccc2[nH]cc(C(=O)NC3CCCCC3)c(=O)c2c1 |
| 79 nM | CS(=O)(=O)NC1CCC(Nc2ncc(Br)c(Nc3ccccc3C(N)=O)n2)CC1 (stereo not drawn) |
| 1000 nM | O=C(c1ccccc1)N1CCC(C(=O)N2CCC(Oc3ccccc3Cl)CC2)CC1 |
| 400 nM | CCN(CC)c1ncc(C(=O)c2ccc([N+](=O)[O-])o2)s1 |
| 630 nM | Cc1[nH]n2c(=O)c3c(nc2c1-c1ccc(F)cc1)CCCC3 |
| 790 nM | C[C@@H](Oc1cc(-n2cnc3ccc(CC(O)CO)cc32)sc1C(N)=O)c1ccccc1Cl (stereo partly drawn) |
| 500 nM | CCCCn1c(=O)c2c(N)onc2n(CCCC)c1=O |
| 16 nM | CS(=O)(=O)N1CCC(Nc2ncc(Br)c(Nc3cccc(F)c3C(N)=O)n2)CC1 |
| 63 nM | Cc1cc(Nc2cc(C3CC3)[nH]n2)nc(N2CCCC2)n1 |
| 200 nM | CN(C)Cc1cccc(Nc2nccc(-c3ccc(NCCN)c(C#N)c3)n2)c1 |
